The text below walks through data of PubChem BioAssay AID256 (DTP/NCI, 2004).

Several values for one entry are separate records, joined by “and”; a condition that tells them apart may be missing. Identical values can stand only once. Toxic doses and inconclusive results are not listed.

This experiment has as its system CD2F1 mice, L1210 leukemia ip, survival T/C. Nature of the experiment: NCI In Vivo Anticancer Drug Screen. Data for tumor model L1210 Leukemia (intraperitoneal) in CD2F1 (CDF1) mice. The settings on record: higher = longer survival. Summed up: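 Antitumor effect is scored in animals hosting a serially transplanted tumor. Values compare compound-dosed animals against vehicle-only controls as a simple quotient.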

[1] abbreviates: endpoint: mean survival time, dose: 100.0 mg/kg/injection, schedule: Q01DX001 (ip), vehicle: saline with Tween-80.

As to `CCOC1(C)OC2OC(COC(c3ccccc3)(c3ccccc3)c3ccccc3)C(O)C(O)C2O1` (stereo not drawn), the T/C is 97 % of control (endpoint: mean survival time, dose: 12.5 mg/kg/injection, schedule: Q01DX009 (ip), vehicle: other); 103 % of control (endpoint: mean survival time, dose: 25.0 mg/kg/injection, schedule: Q01DX009 (ip), vehicle: other); 101 % of control (endpoint: mean survival time, dose: 50.0 mg/kg/injection, schedule: Q01DX009 (ip), vehicle: other); 98 % of control (endpoint: mean survival time, dose: 100.0 mg/kg/injection, schedule: Q01DX009 (ip), vehicle: other); 101 % of control (endpoint: mean survival time, dose: 200.0 mg/kg/injection, schedule: Q01DX009 (ip), vehicle: other).

For `Nc1nc([Se])c2ncn(C3OC(CO)C(O)C3O)c2n1` (stereo not drawn), the T/C is 123 % of control (endpoint: mean survival time, dose: 1.0 mg/kg/injection, schedule: Q01DX009 (ip), vehicle: saline); 114 % of control (endpoint: mean survival time, dose: 2.0 mg/kg/injection, schedule: Q01DX009 (ip), vehicle: distilled water + Tween-80); 119 % of control (endpoint: mean survival time, dose: 2.0 mg/kg/injection, schedule: Q01DX009 (ip), vehicle: water); 117 % of control (endpoint: mean survival time, dose: 2.0 mg/kg/injection, schedule: Q04DX003 (ip), vehicle: DMSO); 116 % of control and 109 % of control (endpoint: mean survival time, dose: 2.0 mg/kg/injection, schedule: Q04DX003 (ip), vehicle: clinical formulation); 115 % of control and 119 % of control (endpoint: mean survival time, dose: 2.0 mg/kg/injection, schedule: Q04DX003 (ip), vehicle: saline). The T/C (endpoint: mean survival time, dose: 2.5 mg/kg/injection, schedule: Q01DX005 (iv), vehicle: water) is 95 % of control; the T/C (endpoint: mean survival time, dose: 4.0 mg/kg/injection, schedule: Q04DX003 (ip), vehicle: DMSO) was 113 % of control; the T/C (endpoint: mean survival time, dose: 4.0 mg/kg/injection, schedule: Q04DX003 (ip), vehicle: clinical formulation) was 113 % of control; the T/C (endpoint: mean survival time, dose: 5.0 mg/kg/injection, schedule: Q01DX005 (iv), vehicle: water) was 113 % of control; the T/C (endpoint: mean survival time, dose: 8.0 mg/kg/injection, schedule: Q04DX003 (ip), vehicle: clinical formulation) is 115 % of control; the T/C (endpoint: mean survival time, dose: 12.5 mg/kg/injection, schedule: Q01DX005 (ip), vehicle: saline) is 169 % of control. Also, the T/C by setting is: (endpoint: mean survival time, dose: 16.0 mg/kg/injection, schedule: Q01DX009 (ip), vehicle: distilled water + Tween-80) 150 % of control; (endpoint: mean survival time, dose: 16.0 mg/kg/injection, schedule: Q01DX009 (ip), vehicle: water) 119 % of control; (endpoint: mean survival time, dose: 25.0 mg/kg/injection, schedule: Q01DX005 (ip), vehicle: saline) 191 % of control; (endpoint: mean survival time, dose: 32.0 mg/kg/injection, schedule: Q01DX009 (ip), vehicle: distilled water + Tween-80) 156 % of control; (endpoint: mean survival time, dose: 32.0 mg/kg/injection, schedule: Q01DX009 (ip), vehicle: saline) 116 % of control and 117 % of control; (endpoint: mean survival time, dose: 32.0 mg/kg/injection, schedule: Q01DX009 (ip), vehicle: water) 92 % of control. The T/C was 151 % of control (endpoint: mean survival time, dose: 40.0 mg/kg/injection, schedule: Q01DX005 (iv), vehicle: water); 187 % of control (endpoint: mean survival time, dose: 50.0 mg/kg/injection, schedule: Q01DX005 (ip), vehicle: saline); 87 % of control (endpoint: mean survival time, dose: 64.0 mg/kg/injection, schedule: Q01DX009 (ip), vehicle: saline); 100 % of control (endpoint: median survival time, dose: 1.0 mg/kg/injection, schedule: Q01DX009 (sc), vehicle: DMSO); 153 % of control (endpoint: median survival time, dose: 1.0 mg/kg/injection, schedule: Q03HX016 (ip), vehicle: DMSO); 150 % of control (endpoint: median survival time, dose: 1.0 mg/kg/injection, schedule: Q03HX024 (ip), vehicle: DMSO). In addition, the T/C is 172 % of control (endpoint: median survival time, dose: 2.0 mg/kg/injection, schedule: Q01DX009 (ip), vehicle: DMSO); 111 % of control (endpoint: median survival time, dose: 2.0 mg/kg/injection, schedule: Q01DX009 (sc), vehicle: DMSO); 171 % of control (endpoint: median survival time, dose: 2.0 mg/kg/injection, schedule: Q03HX008 (ip), vehicle: DMSO); 162 % of control (endpoint: median survival time, dose: 2.0 mg/kg/injection, schedule: Q03HX016 (ip), vehicle: DMSO); 178 % of control (endpoint: median survival time, dose: 2.0 mg/kg/injection, schedule: Q03HX024 (ip), vehicle: DMSO); 200 % of control (endpoint: median survival time, dose: 4.0 mg/kg/injection, schedule: Q01DX009 (ip), vehicle: DMSO). The T/C (endpoint: median survival time, dose: 4.0 mg/kg/injection, schedule: Q01DX009 (oral), vehicle: DMSO) was 107 % of control; the T/C (endpoint: median survival time, dose: 4.0 mg/kg/injection, schedule: Q03HX008 (ip), vehicle: DMSO) was 173 % of control; the T/C (endpoint: median survival time, dose: 4.0 mg/kg/injection, schedule: Q03HX016 (ip), vehicle: DMSO) is 185 % of control; the T/C (endpoint: median survival time, dose: 4.0 mg/kg/injection, schedule: Q03HX024 (ip), vehicle: DMSO) is 175 % of control; the T/C (endpoint: median survival time, dose: 4.0 mg/kg/injection, schedule: Q08DX002 (ip), vehicle: DMSO) was 123 % of control; the T/C (endpoint: median survival time, dose: 8.0 mg/kg/injection, schedule: Q01DX001 (sc), vehicle: DMSO) is 112 % of control. The T/C is, setting by setting: (endpoint: median survival time, dose: 8.0 mg/kg/injection, schedule: Q01DX009 (ip), vehicle: DMSO) 175 % of control; (endpoint: median survival time, dose: 8.0 mg/kg/injection, schedule: Q01DX009 (oral), vehicle: DMSO) 123 % of control; (endpoint: median survival time, dose: 8.0 mg/kg/injection, schedule: Q01DX009 (sc), vehicle: DMSO) 166 % of control; (endpoint: median survival time, dose: 8.0 mg/kg/injection, schedule: Q03HX008 (ip), vehicle: DMSO) 176 % of control; (endpoint: median survival time, dose: 8.0 mg/kg/injection, schedule: Q03HX016 (ip), vehicle: DMSO) 176 % of control; (endpoint: median survival time, dose: 8.0 mg/kg/injection, schedule: Q03HX024 (ip), vehicle: DMSO) 185 % of control. Also, the T/C is 166 % of control (endpoint: median survival time, dose: 8.0 mg/kg/injection, schedule: Q04DX003 (ip), vehicle: DMSO); 120 % of control (endpoint: median survival time, dose: 16.0 mg/kg/injection, schedule: Q01DX001 (oral), vehicle: DMSO); 121 % of control (endpoint: median survival time, dose: 16.0 mg/kg/injection, schedule: Q01DX001 (sc), vehicle: DMSO); 191 % of control (endpoint: median survival time, dose: 16.0 mg/kg/injection, schedule: Q01DX009 (ip), vehicle: DMSO); 158 % of control (endpoint: median survival time, dose: 16.0 mg/kg/injection, schedule: Q01DX009 (oral), vehicle: DMSO); 187 % of control (endpoint: median survival time, dose: 16.0 mg/kg/injection, schedule: Q01DX009 (sc), vehicle: DMSO). In addition, the T/C is, setting by setting: (endpoint: median survival time, dose: 16.0 mg/kg/injection, schedule: Q04DX003 (ip), vehicle: DMSO) 178 % of control; (endpoint: median survival time, dose: 16.0 mg/kg/injection, schedule: Q08DX002 (ip), vehicle: DMSO) 102 % of control; (endpoint: median survival time, dose: 32.0 mg/kg/injection, schedule: Q01DX001 (oral), vehicle: DMSO) 117 % of control; (endpoint: median survival time, dose: 32.0 mg/kg/injection, schedule: Q01DX009 (ip), vehicle: DMSO) 178 % of control; (endpoint: median survival time, dose: 32.0 mg/kg/injection, schedule: Q01DX009 (oral), vehicle: DMSO) 167 % of control; (endpoint: median survival time, dose: 32.0 mg/kg/injection, schedule: Q01DX009 (sc), vehicle: DMSO) 160 % of control. The T/C runs as follows: (endpoint: median survival time, dose: 32.0 mg/kg/injection, schedule: Q04DX003 (ip), vehicle: DMSO) 183 % of control; (endpoint: median survival time, dose: 64.0 mg/kg/injection, schedule: Q01DX009 (ip), vehicle: DMSO) 116 % of control; (endpoint: median survival time, dose: 64.0 mg/kg/injection, schedule: Q01DX009 (oral), vehicle: DMSO) 160 % of control; (endpoint: median survival time, dose: 64.0 mg/kg/injection, schedule: Q01DX009 (sc), vehicle: DMSO) 111 % of control; (endpoint: median survival time, dose: 64.0 mg/kg/injection, schedule: Q04DX003 (ip), vehicle: DMSO) 191 % of control; (endpoint: median survival time, dose: 128.0 mg/kg/injection, schedule: Q01DX001 (ip), vehicle: DMSO) 121 % of control.

Turning to `CCN(C(=O)c1ccccc1Cl)C(c1ccco1)P(=O)(c1ccccc1)c1ccccc1` (stereo not drawn), the T/C was 90 % of control (endpoint: mean survival time, dose: 100.0 mg/kg/injection, schedule: Q01DX009 (ip), vehicle: saline with Tween-80) and 107 % of control (endpoint: mean survival time, dose: 200.0 mg/kg/injection, schedule: Q01DX009 (ip), vehicle: saline with Tween-80).

For the molecule `CCCCCCCP(=O)(CCCCCCC)CCCCCCC`, the T/C by setting is: (endpoint: mean survival time, dose: 25.0 mg/kg/injection, schedule: Q01DX001 (ip), vehicle: saline with Tween-80) 107 % of control; (endpoint: mean survival time, dose: 50.0 mg/kg/injection, schedule: Q01DX001 (ip), vehicle: saline with Tween-80) 96 % of control; under setting [1], 100 % of control.

In the case of `CC1CCCCC1NC(=O)c1ccccc1` (stereo not drawn), the T/C was 100 % of control under setting [1]; 98 % of control (endpoint: mean survival time, dose: 200.0 mg/kg/injection, schedule: Q01DX001 (ip), vehicle: saline with Tween-80); 87 % of control (endpoint: mean survival time, dose: 400.0 mg/kg/injection, schedule: Q01DX001 (ip), vehicle: saline with Tween-80).
